US20060018827A1, “Positron therapy of inflammation, infection and disease” (priority 2004, published 2006)

Columns and labels:
metastatic cancers = experiment: FDG-PET SUVmax in patients with different types of metastatic cancer; type: in vivo, human
Procedure: (§1) ^18F-FDG-PET in breast cancer patients with metastatic disease. Approval was obtained from the Albert Einstein College of Medicine Cancer Center Protocol Review Committee and the Montefiore Medical Center Institutional Review Board. Retrospectively, five consecutive patients with breast cancer and metastatic disease shown on ^18F-FDG-PET scanning were evaluated. After more than 4 hours of fasting, the patients were administered 3.5 mCi of ^18F-FDG, and rested during an uptake period of 45 minutes. The patients then underwent a whole-body scan on the CPET scanner. The scanning protocol consisted of 6 minutes of emission and two rotations of a ^137Cs source for transmission per bed position, and approximately six bed positions. Images were corrected for attenuation and reconstructed with the iterative method. To reduce volume averaging, a small round region of interest 12 pixels in size was drawn in the center of the tumor and in the center of normal liver. The diameter of the region was 14 mm. Standardized uptake values (SUVs) were calculated for all regions of interest by the formula SUV=(activity in tissue [mCi/g]) divided by (injected activity [mCi]/body weight [g]). The tumor to liver ratios (TLRS) were calculated by the formula TLR=SUV of tumor divided by SUV of liver.
Human Tumor Dosimetry. For each patient, the tumor with the highest SUVmax was used, and corresponding calculated tumor dose (TD) for metastatic cancers are shown in Columns 4 and 5 in Table 3. Tumor dose is calculated by the formulae: D(cGy)=100*SUV, for a dose of 5 Ci HD ^18F-FDG; and D(cGy)=150*SUV, for a dose of 7.5 Ci HD ^18F-FDG.

[1] = tested on: mammary tumors in PyMT mice; experiment: Treatment of PyMT mice with ^18F-FDG (toleration, apoptosis and necrosis detection); type: in vivo, mouse
Procedure: Animals. All procedures involving mice were conducted in accordance with the National Institutes of Health regulations concerning the use and care of experimental animals. The study of mice was approved by the Albert Einstein College of Medicine (AECOM) Animal Use Committee. Transgenic mice expressing the polyoma middle T antigen (PyMT) in the mammary epithelium under the control of mouse mammary tumor virus (MMTV) long terminal repeat were provided by Dr. W. J. Muller (McMaster University, Ontario, Canada) and then bred at AECOM. At the age of 10 weeks these mice have multiple mammary tumors 0.15-0.17 cm in diameter. In mice older than 18 weeks the tumors are more than 1 cm in diameter. MMTV-NeuT mice (Muller et al. 1988), which carry erbB-2 (Neu), one of the better known human breast cancer oncogenes, were purchased from Jackson Laboratories. MMTV-NeuT mice were obtained as retired breeders and some of them developed mammary tumors at the age of 5 months, whereas others remained-tumor free until 6-7 months of age. C3H/B6 female mice lacking the PyMT transgene were used as healthy controls in therapy experiments. Notch tumor-bearing mice were produced by subcutaneously injecting six to eight week old female nude mice with […] Notch cells on their right flank. One week after implantation the tumors reached 0.5-0.7 cm in diameter and therapy with FDG was initiated.
Treatment of PyMT mice with ^18F-FDG. After a 4-hour fast, three groups of mice were treated i.p. with the following doses of ^18F-FDG: group 1 (five 10-week-old mice), 2-4 mCi; group 2 (three 22-week-old mice), 2 mCi; group 3 (two C3H/B6 mice), 3 mCi to assess radiation damage to healthy breast tissue. Three 10-week-old and two 22-week-old PyMT mice served as untreated controls. At 10 days after treatment, mice were killed. In younger mice, the right abdominal mammary glands were removed for whole mount preparation as described (Gouon-Evans et al., 2000), then fixed in buffered formalin and sectioned. In older mice, the tumors were removed and processed as above. Some sections were stained with H&E; others were analyzed for the presence of apoptotic and necrotic cells.
Apoptosis and necrosis detection. The detection of apoptotic and necrotic cells in the tumors was performed with an Apoptag® Plus apoptosis detection kit (Serologicals) in accordance with the manufacturer's instructions. In brief, 3′-OH termini of DNA fragments, which are the hallmark of apoptosis, were labeled with digoxigenin-modified nucleotides by terminal deoxynucleotidyl transferase. This enzyme selectively detects apoptotic over necrotic cells. The labeled DNA was detected with an anti-digoxigenin antibody, and detection was performed with a chromagen: apoptotic cells were stained brown, and areas of necrosis were stained yellow.

metastatic breast cancer = experiment: ^18F-FDG-PET in breast cancer patients with metastatic disease; type: in vivo, human
Procedure: as §1

[2] = Patient 1, metastasis to sub-carinal lymph node, 3.5 mCi
[3] = Patient 2, metastasis to the left axilla, 3.5 mCi
[4] = Patient 4, metastasis to the right axilla, 3.5 mCi

O=C[C@H]([18F])[C@@H](O)[C@H](O)[C@H](O)CO [^18F-FDG, ^18F-2-deoxy-2-fluoro-D-glucose]
SUVmax Median (metastatic cancers; metastatic Anaplastic Thyroid cancer, 3 patients): 17.4 | SUVmax Median (metastatic cancers; metastatic Breast cancer, 10 patients): 7.2 | SUVmax Median (metastatic cancers; metastatic Cervical cancer, 4 patients): 7.0 | SUVmax Median (metastatic cancers; metastatic Esophageal cancer, 5 patients): 11.1 | SUVmax Median (metastatic cancers; metastatic Head & Neck cancer, 9 patients): 6.6 | SUVmax Median (metastatic cancers; metastatic Lung cancer, 10 patients): 5.9 | SUVmax Median (metastatic cancers; metastatic Lymphoma, 9 patients): 5.6 | SUVmax Median (metastatic cancers; metastatic Melanoma, 7 patients): 9.0 | SUVmax Median (metastatic cancers; metastatic Ovarian cancer, 9 patients): 5.3 | maximum SUV (metastatic cancers; patient with metastatic esophageal cancer, abdominal metastasis): 33 | maximum SUV (metastatic cancers; patient with metastatic non-small cell lung cancer, right mediastinum): 14.8 | apoptotic cells in treated small tumors ([1]; 10-week-old PyMT mice, tumors 0.15-0.17 cm, 2-4 mCi i.p., 10 days after treatment): 4±1% | necrotic areas, share of tumor volume ([1]; 22-week-old PyMT mice, tumors more than 1 cm, 2 mCi i.p., 10 days after treatment): 14% | apoptosis or necrosis in healthy mammary glands ([1]; C3H/B6 mice, 3 mCi i.p.): No apoptosis or necrosis was detected | changes in eating and drinking habits, urine and fecal excretion, or body weight ([1]; PyMT mice, 2-4 mCi i.p., observed for 10 days): No changes | radioactivity detected in mice ([1]; PyMT mice, 24 hours after injection): no radioactivity was detected | SUV Metastasis (metastatic breast cancer; [2]): 5.3 | TLR (metastatic breast cancer; [2]): 1.89 | SUV Normal liver (metastatic breast cancer; Patient 1, 3.5 mCi): 2.8 | SUV Metastasis (metastatic breast cancer; [3]): 7.4 | TLR (metastatic breast cancer; [3]): 3.36 | SUV Normal liver (metastatic breast cancer; Patient 2, 3.5 mCi): 2.3 | SUV Metastasis (metastatic breast cancer; Patient 3, liver metastasis (10 cm×6 cm×4.5 cm), 3.5 mCi): 5.8 | TLR (metastatic breast cancer; Patient 3, liver metastasis, 3.5 mCi): 2.23 | lowest SUV (metastatic breast cancer; Patient 3, tumor with a diameter of 2 cm): 3.8 | SUV Normal liver (metastatic breast cancer; Patient 3, 3.5 mCi): 2.6 | SUV Metastasis (metastatic breast cancer; [4]): 5.3 | TLR (metastatic breast cancer; [4]): 2.52 | SUV Normal liver (metastatic breast cancer; Patient 4, 3.5 mCi): 2.1 | SUV Metastasis (metastatic breast cancer; Patient 5, right lung metastasis (most intense, diameter 5 cm), 3.5 mCi): 9.9 | TLR (metastatic breast cancer; Patient 5, right lung metastasis, 3.5 mCi): 3.67 | least intense SUV (metastatic breast cancer; Patient 5, tumor with a diameter of 1.5 cm): 2.9 | SUV Normal liver (metastatic breast cancer; Patient 5, 3.5 mCi): 2.7 | average TLR (metastatic breast cancer; five patients with metastatic breast cancer, 3.5 mCi): 2.7±0.8
